Source: a melting point compilation (Tetko et al.; mined from patent text by program, amines drawn as free bases though some values may be those of a salt)

SMILES | melting point [°C]
CCOC(=O)C1=Cc2cc(N)ccc2OC1C(F)(F)F (stereo not drawn) | 111 to 115
O=C(O)COc1c(Br)cc(C(=O)c2c(Cc3ccccc3)oc3ccccc23)cc1Br | 165 to 167
COc1ncccc1-c1cccn2nc(Nc3ccc(C4CCN(C(=O)OC(C)(C)C)CC4)cc3)nc12 | 101 to 103
Clc1ccc(CN2CCCCC2)cn1 | 48
CCc1cc(OC)c(C=O)cc1OC | 46 to 47
O=P(O)(O)C(c1ccc2cc(O)ccc2c1)P(O)(O)=S (stereo not drawn) | 210 to 211
CC(C)c1cccc(C(C)C)c1NC(=O)NCC1(c2ccc(N(C)C)cc2)CCCC1 | 132 to 133
O=C1OCC2C3OC(C4=C3CCCC4)C12 (stereo not drawn) | 105 to 106
C=C1c2ccccc2CC(=NO)c2ccccc21 | 156 to 160
COc1cc(OC)cc(OC(=O)N2CCCC2=O)c1 | 80 to 81
COC(=O)CCc1ccc(OCc2cccc(/C=C/c3ccccc3)c2)cc1 | 100 to 101
CN1CC(CCN2CCN(c3ccccc3F)CC2)OC1=O (stereo not drawn) | 80 to 82
COC(CNC(=O)CN1C(=O)C(C)=C(C)C1=O)OC | 99.4 to 99.9
NC(=O)c1cccc2c1OC(CN1CC=C(c3c[nH]c4ccc(F)cc34)CC1)CO2 (stereo not drawn) | 195 to 197
Brc1ccc(N=C(c2ccccc2)c2ccccc2)cc1 | 82 to 83
CC(C)(C)Sc1c(CC(C)(C)C(=O)O)n(Cc2ccc(Cl)cc2)c2ccc(OCc3cccnc3)cc12 | 206 to 208
CCCc1coc2c(Cc3ccc(C(C)C)cc3)c(C)cc(C)c12 | 89 to 90
CCCCCCCCCC(N)CCCCCCCCC(N)CCCCCCCCC (stereo not drawn) | 33 to 37
O=C(O)CCNC(=O)CCCCC1CCSS1 (stereo not drawn) | 74 to 76
CCOC(=O)c1ccc2nc(-c3ccc(C)cc3)c(CN(C)C(=O)CC(C)C)n2c1 | 158 to 160
CC(=O)NC[C@H]1CN(c2ccc(C3CCN(CCF)CC3)c(F)c2)C(=O)O1 | 155 to 157
O=c1[nH]ccn1-c1ccc(F)cc1F | 192 to 194
Cc1nc2ccccn2c(=O)c1CCN1CCC(C(=O)c2ccccc2)CC1 | 122
CN1C(=O)COc2ccc(C3=NNC(=O)CC3)cc21 | 247 to 248
Cc1cccc(CNC(=O)c2ccc3n2Cc2ccccc2N(C(=O)COc2ccc(Cl)cc2)C3)c1 | 130 to 131
CC(=O)OC1CSC(Oc2ccc(-c3cncnc3)nc2)C(OC(C)=O)C1OC(C)=O (stereo not drawn) | 215

SMILES | melting point [°C]
Cc1cc(Cl)cc2nc3c(=O)[nH][nH]c(=O)c3c(O)c12 | 117 to 119
O=C(Nc1cn(C2CCCCO2)nc1C(=O)NCCNc1ccccc1)c1ccccn1 (stereo not drawn) | 182 to 183
O=C(Nc1ccc(Oc2ccnc(NCCN3CCCCC3)n2)c2ccccc12)c1cc(F)cc(N2CCCCC2)c1 | 88 to 89
CCOC(=O)COc1cc2c(c(Cl)c1Cl)C(=O)C(C)(C(C)C)C2 (stereo not drawn) | 113
O=C(O)c1ccc(-c2ccc(-c3ccc(C(F)(F)F)cc3)s2)cc1 | 284 to 285
O=c1[nH]c2ccc(C(F)(F)F)cc2c(-c2cc(Cl)ccc2O)c1CO | > 250
NCc1nc(-c2ncn3c2[C@@H]2CCN2C(=O)c2ccccc2-3)no1 | 211 to 214
O=C(Nc1cc(F)ccc1F)c1cc(-c2ccc(F)cc2F)ccc1O | 213 to 214
O=c1[nH]c2ccccc2c2c(=O)n(-c3ccccc3)[nH]c12 | > 260
CC(C)(O)C1CCN(c2ccc(C#N)c3ccccc23)CC1 | 133 to 134
Oc1nc(-c2ccccc2)nc(-c2ccccc2)n1 | 296 to 297
CONC(=O)c1cc2c(Sc3ccc(C)cc3)cncc2s1 | 200 to 203
Nc1nc2ccccc2c2c1nc(-c1ccccc1)n2CCCCNS(=O)(=O)c1ccc(F)cc1 | 214 to 216
C#CCOCC1=C(C(=O)OCC)C(c2cccc(Cl)c2Cl)C(C(=O)OC)=C(C)N1 (stereo not drawn) | 104 to 105
COc1cc(OC)c2c(C)c(C(C)=O)c(=O)oc2c1 | 166 to 167
COc1ccc(CCN(C)CCOc2ccc(NC(=O)c3cccc4c(=O)c5cc(F)ccc5sc34)cc2)cc1OC | 145
O=C(O)CCc1cnoc1-c1cccc(Cl)c1 | 110 to 111
COc1ccc2c(c1)c(CCc1cc(=O)n(C3CCCCC3)[nH]1)c(C)n2C(=O)c1ccc(Cl)cc1 | 110
CCn1cc(C(=O)O)c(=O)c2ccc(F)c(C)c21 | 245 to 246
CCCCCCCOc1ccc(C(C)O)cc1 (single isomer, unassigned; (+)) | 36.7
COC(=O)c1cc(S(C)(=O)=O)c(NS(=O)(=O)c2sc3ccc(Cl)cc3c2C)cc1C | 205 to 207
N#CC1(c2cccs2)CCC(=O)CC1 | 118 to 119
CCc1nc2c(c(C)c(C)n3nnnc23)n1CCOCCN | 181 to 183
Nc1nc2c(s1)CCN(CC=Cc1cccc([N+](=O)[O-])c1)CC2 | 165 to 168
O=S1(=O)CNc2cccc3cccc1c23 | 206 to 207
COc1nc2ccccc2cc1NC(=O)N1CCN(c2cccc(Cl)c2)CC1 | 97 to 98

SMILES | melting point [°C]
COc1cc(N2C(=O)N(C)CC2O)c(F)cc1Cl (stereo not drawn) | 138 to 140
O=C1NC(=O)C(Cc2cc(O)c(O)c([N+](=O)[O-])c2)C(=O)N1 | 263 to 266
CCCCCc1c(C(C)C)nc(C(C)C)c(CO)c1-c1ccoc1 | 98 to 100
O=c1oc(-c2ccccc2)cc(O)c1SCc1cccc(Oc2ccccc2)c1 | 131 to 133
CNC(=O)N1Cc2ccccc2CCC1=O | 140 to 141
Cn1nc(-c2ccc(Cl)cc2)c2ccccc2c1=O | 151 to 152
CCOC(=O)CC1(O)c2ccccc2C=Cc2ccccc21 | 93 to 99
O=C(O)C1=Cc2cc(Cl)ccc2N(Cc2ccc(Cl)cc2)C1C(F)(F)F (stereo not drawn) | 250 to 253
Cc1cc([N+](=O)[O-])c(C)nc1O | 263
COC[C@@H](O)CN1CCC(c2ccc(-c3nc4c(N[C@H]5[C@@H](C(N)=O)[C@@H]6C=C[C@H]5C6)c(Cl)cnc4[nH]3)c(OC)c2)CC1 | 189 to 191
CC(=O)SCC(C(=O)N1CC2(C[C@H]1C(=O)O)C(=O)CCC2=O)C(F)(F)F (stereo partly drawn) | 153 to 155
CCOC(=O)CN(CC=CC(=O)Nc1cc2c(Nc3ccc(F)c(Cl)c3)ncnc2cc1OCC1CC1)CCOC(C)=O | 90 to 92
CC#CC(C)(C)NC(=O)C(Oc1cc(Cl)nc(Cl)c1)SC (stereo not drawn) | 141 to 142
CNC(=O)CC1CN=C(c2cc3cc(Oc4ccc(S(C)(=O)=O)nc4)ccc3[nH]2)S1 (stereo not drawn) | 178 to 180
CCCOc1ccccc1-c1ccc2c(c1)C=C(C(=O)Nc1ccc(CN(C)C3CCOCC3)cc1)CCS2(=O)=O | 190 to 192
O=C1c2cc(Cl)ccc2-n2c1nc1ccccc1c2=O | 295 to 296
COC(C)(OC)c1ccc(C2(O)CCC(C)(C)CC2)cc1 | 88
COc1ccc(NC(=O)C2CC2)cn1 | 130 to 131
CO/N=C(\C)[C@H]1CC[C@H]2[C@@H]3CCC4=CC(=O)CC[C@]4(C)[C@H]3CC[C@]12C | 180 to 182
CC1(C)Oc2cc3nonc3cc2[C@@H](NC(=O)Nc2ccccc2)[C@@H]1O (relative stereo) | 215 to 216
COc1cc2ncnc(N3CCC(C(C)=O)CC3)c2cc1OC | 116 to 117
CC(C)(C)[Si](C)(C)OC1CCCc2cnc3cc(O)ccc3c21 (stereo not drawn) | 248 to 250
COc1cc(N)c(Cl)cc1C(=O)NCC1(OC)CCN(CCCCCC(=O)c2ccccc2)CC1 | 91 to 93
CCOC(=O)c1cc2cc(C)c(C)cc2[nH]1 | 164
COc1cc2c(cc1OC)CN(Cc1ccc(OC(=O)N(C)C)c(OC)c1)CC2 | 126 to 128
c1c2c(cc3c1CCC3)CCC2 | 35 to 36.2

SMILES | melting point [°C]
COc1ccc(C=C2CCc3c2nc2ccc(C)cn2c3=O)cc1 | 210 to 211
CCOC(=O)c1cn(Cc2ccc(OCc3csc(-c4ccccc4)n3)cc2)nc1-c1cccs1 | 94 to 95
Cc1ccc(S(=O)(=O)n2c(I)cc3cccnc32)cc1 | 105 to 107
CCOC(=O)c1[nH]c2cc3[nH]c(C)c(C(=O)OCC)c3c(C)c2c1C | 216
CC1(C)Oc2ccc(C#N)cc2C(NC(=O)Nc2ccc3c(c2)CCC3)C1O (stereo not drawn) | 235 to 237
CC(N)CCc1ccc(C(N)=O)s1 (racemic) | 65 to 75
FC(F)(F)c1cccc(Oc2nccc(-c3ccc(Cl)c(Cl)c3)n2)c1 | 106
Cn1c(CC#N)ccc1C(=O)c1ccccc1 | 106 to 108
CC=CC(=O)OCC(C)(Sc1cc2ccccc2n1C)c1ccccc1 (stereo not drawn) | 56 to 57
C[C@H]1CCCC(C)(C)[C@@H]1[C@H](O)c1ccc2c(c1)CCN(C(N)=O)C2 | 99.1 to 101
COC(=O)/C=C/C=C(/c1ccc(OC)cc1)c1cccs1 | 97 to 99
Cc1ccc(-c2cc3ccccc3[nH]2)cc1 | 213 to 215
N#CC(C=N)CC(=O)c1ccccc1F (stereo not drawn) | 120 to 122
CCC(C)Nc1ccc2n[nH]c(=O)n2n1 (stereo not drawn) | 214 to 216
CCCCCNCCC1CCCC1CCCCCCC(=O)O (stereo not drawn) | 107 to 108
CCCCC1(C2CCCC2)Cc2cc(O)c(Cl)c(Cl)c2C1=O (stereo not drawn) | 160
Cc1c(C)c2c(c(C)c1Br)OC(C)(C)C2=O | 125 to 127
CC(C)CCCC(C)CCOc1cc(CCl)c(OCCC(C)CCCC(C)C)cc1CCl (stereo not drawn) | 55
C=CCNC(=O)N1CC(Oc2ccc(Br)cc2)C1 | 100 to 101
CCCCn1c(=O)c2cn(S(C)(=O)=O)nc2n(CCCC)c1=O | 103 to 104
Cc1oc2c(-c3ccc(F)cc3)c(-c3ccc(S(C)(=O)=O)cc3)nn2c1-c1cccs1 | 240 to 241
O=c1[nH]c(=O)n(CCCl)c2ccccc12 | 189 to 192
COc1cc2c(cc1Nc1ncc(Cl)c(Nc3ccccc3S(=O)(=O)N(C)C)n1)CCN(CCN1CCOCC1)C(=O)C2 | 75 to 91
O=C(Nc1ccc(-n2nc(C(F)(F)F)cc2C2CC2)c(F)c1)c1c(Cl)cncc1Cl | 218 to 223
COCOCc1nc(N)c2ncc(O)nc2n1 | 210 to 212
